Measurements taken from publication PMC10888717, “Identification of Novel Non-Nucleoside Inhibitors of Zika Virus NS5 Protein Targeting MTase Activity” (International Journal of Molecular Sciences, 2024).
“Also recorded” adds a separate entry of the source.

What was measured:
[1] = Cytotoxicity assay (MTT) on Vero E6 cells; type: cell-based; details: African green monkey; VERO E6 cells, MTT, 3 days; read-out: CC50 ± SD (half-maximal cytotoxic concentration)
Protocol: Compounds characterized by the best anti-enzymatic activity were tested against ZIKV in cellular assays. VERO E6 cells were infected with ZIKV at a multiplicity of infection (M.O.I.) of 0.1, and their activities were evaluated by a plaque reduction assay three days post-infection. Ribavirin was used as a reference compound. As reported in Table 2, compound 1, identified in the first screening, was unable to inhibit viral replication up to a 100 μM concentration. […] The cytotoxicity of the series was determined on the same cell line. […] Their selectivity indexes were calculated as the ratio between CC50 and IC50 values; the results highlight their promising safety profile.
Monolayers of 2.5 × 10^4 Vero E6 cells per well were grown in flat-bottom 96-well culture plates and allowed to adhere overnight. Then, when the cell layers were confluent, the medium was removed, the wells were washed twice with PBS, treated with 100 µL of DMEM with 10 µL DMSO alone (cell positive control) or with various concentrations of anti-NS5 inhibitory compounds under study (compound final concentrations of 100, 10, 1, 0.1, and 0.01 μM), and incubated for 3 days at 37 °C in a CO2. After treatment, an MTT (3-(4,5-dimethylthiazol-2-yl)-2,5-diphenyltetrazolium bromide) kit (Roche, Milan, Italy) was used according to the supplier’s instructions, and the absorbance of each well was determined using a microplate spectrophotometer at a wavelength of 570 nm. Cytotoxicity was calculated by dividing the average optical density of treated samples by the average of DMSO-treated samples (cell positive control).

[2] = Median lethal dose assessment in Tenebrio molitor coleoptera; type: in vivo; details: in vivo, 200 mg/kg, single dose into hemocoel, 7 days observation
Protocol: (§1) The median lethal dose (LD50) was determined for compound 17 in a Tenebrio molitor coleoptera (TMC) toxicity model published previously. Due to ethical reasons, and according to the 3Rs principle, the insect model was preferred to the murine model to preliminarily evaluate the potential in vivo toxicity. […] The experiment was repeated until LD50 was determined and finally confirmed with ten TMCs. […] Even if complete pharmacokinetics should be performed to determine plasmatic levels, the administered concentration was higher than IC50. Considering that no antiviral efficacy models have been developed in insects, future studies with optimized compounds should be translated into suitable models (i.e., mice).
(§2) Tenebrio molitor coleoptera (TMC) and pupae for acute toxicity tests were fed at the University of Siena (Siena, Italy) on a diet previously published. Pupae and adult TMC were reared in semi-dark conditions at a temperature of 27 ± 1 °C and a relative humidity (RH) of 40–50%.
(§3) Median lethal dose assessment was carried out as previously published. Three days after the mutation, TMCs were randomly chosen. The appropriate amount of compound 17 was solubilized at the appropriate dose expressed in mg/kg of insect weight. […]

[3] = system: Tenebrio molitor coleoptera (TMC); assay: as above; type: in vivo; details: acute administration
Protocol: as §1, §2, §3

[4] = system: ZIKV; assay: ZIKV inhibitory viral plaque reduction assay in Vero E6 cells; type: cell-based, Zika virus
[5] = Metabolic stability in human liver microsomes; type: in vitro ADME; details: 1 h, 37 °C, three experiments
Protocol: The metabolic stability was investigated by incubating selected compounds with human liver microsomes (HLMs) for 1 h at 37 °C. The percentage of non-metabolized compounds and metabolites was analyzed by HPLC-UV-MS. […] HPLC analysis confirmed the presence of the oxidated metabolites in small percentages.
For the ADME property determination, an Agilent 1260 Infinity HPLC-DAD interfaced with an Agilent MSD 6130 (Agilent Technologies, Palo Alto, CA, USA) was used. Chromatographic conditions were optimized using a Phenomenex Kinetex C18-100 Å column (150 × 4.6 mm) with 5 µm particle size and gradient elution with a binary solution (eluent A: H2O; eluent B: ACN; both eluents were acidified with formic acid 0.1% v/v) at room temperature. The LC analyses started with 5% of B (from t = 0 to t = 1 min), then B was increased to 95% (from t = 1 to t = 10 min) and then kept at 95% (from t = 10 to t = 19 min) and finally returned to initial conditions in 1.0 min. The flow rate was 0.6 mL/min and the injection volume was 10 µL.
The test was performed as previously reported with minor modifications. Each compound was dissolved in DMSO and phosphate buffer (0.025 M, pH 7.4), and human liver microsomes (0.2 mg/mL) and a NADPH-regenerating system in MgCl2 48 mM were added to a final volume of 500 µL. This solution was incubated for 1 h at 37 °C and then the reaction was stopped and quenched using 1 mL of ACN. The reaction mixtures were then centrifuged (4000 rpm for 10 min) and the supernatant was taken, dried under nitrogen flow, and then resuspended in 100 µL of methanol. The parent drug and metabolites were subsequently determined using the chromatographic conditions described above. The percentage of non-metabolized compounds was calculated by comparison with reference solutions. The determination of metabolic stability for each compound was performed in three independent experiments.

SMILES: CN1C(=O)c2ccc(NC(=O)c3cc4cccc(Cl)c4s3)cc2C1=O [Compound 17]
- CC50 at 3 days [1]: > 100 µM
- LD50 at 7 days [2]: 150 mg/kg
- in vivo toxicity (in words) [3]: well tolerated; also recorded: less toxic than commonly used drugs such as paracetamol and carbamazepine
- SI (Selectivity Index, ratio between CC50 and IC50) ([4]; VERO E6 cells): >200
- IC50 ([4]; Zika virus, Vero C1008, read-out: IC50 ± SD (half-maximal inhibitory concentration, ZIKV plaque reduction)): 0.5 ± 0.1 µM
- HLM Stab.% ± SD (percentage of non-metabolized compound) [5]: 96.39 ± 0.11%
